Biological target: MAPK14 (UniProt Q16539)
Experiment: Inhibition of MAPK14 Kinase Activity

MAPK14, sequence (Q16539 whole entry, looked up): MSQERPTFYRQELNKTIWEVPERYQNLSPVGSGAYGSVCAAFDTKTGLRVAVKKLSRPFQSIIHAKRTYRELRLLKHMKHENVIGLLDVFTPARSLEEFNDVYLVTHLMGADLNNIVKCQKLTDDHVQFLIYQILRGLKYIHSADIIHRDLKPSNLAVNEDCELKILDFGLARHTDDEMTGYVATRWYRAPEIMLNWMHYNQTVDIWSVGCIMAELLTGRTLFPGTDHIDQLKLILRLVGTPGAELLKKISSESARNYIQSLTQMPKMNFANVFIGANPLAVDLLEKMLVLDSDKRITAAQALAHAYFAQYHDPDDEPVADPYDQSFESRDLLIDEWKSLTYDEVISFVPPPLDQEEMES

Compound	IC50 [µM]
COc1nccc(-c2c(-c3ccc(F)cc3)ncn2C(CO)CO)n1	< 50
COc1nccc(-c2c(-c3ccc(F)cc3)ncn2C(C)COc2ccccc2)n1 (stereo unspecified)	< 50
CCCSc1nccc(-c2c(-c3ccc(F)cc3)ncn2[C@H](CC)CO)n1	< 50
CCCSc1nccc(-c2c(-c3ccc(F)cc3)ncn2C(CO)CO)n1	< 50
COc1nccc(-c2c(-c3ccc(F)cc3)ncn2[C@@H](CO)c2ccccc2)n1	< 50
CNc1nccc(-c2c(-c3ccc(F)cc3)ncn2[C@H](CO)c2ccccc2)n1	< 50
CCCSc1nccc(-c2c(-c3ccc(F)cc3)ncn2C(C)CN(C)C)n1 (stereo unspecified)	< 50
CCCSc1nccc(-c2c(-c3ccc(F)cc3)ncn2[C@@H](CO)c2ccccc2)n1	< 50
CCCSc1nccc(-c2c(-c3ccc(F)cc3)ncn2[C@H](C)CO)n1	< 50
CC[C@H](CO)n1cnc(-c2ccc(F)cc2)c1-c1ccnc(OC)n1	< 50
COc1nccc(-c2c(-c3ccc(F)cc3)ncn2[C@@H](CO)Cc2ccccc2)n1	< 50
CC[C@@H](CO)n1cnc(-c2ccc(F)cc2)c1-c1ccnc(OC)n1	< 50

Results, then the molecule that gave them:

IC50 [µM]	Compound
< 50	CNc1nccc(-c2c(-c3ccc(F)cc3)ncn2C(C)CO)n1 (stereo unspecified)
< 50	CCCSc1nccc(-c2c(-c3ccc(F)cc3)ncn2[C@H](CO)c2ccccc2)n1
< 50	COc1nccc(-c2c(-c3ccc(F)cc3)ncn2C(C)CO)n1 (stereo unspecified)
< 50	C[C@@H](CO)n1cnc(-c2ccc(F)cc2)c1-c1ccncn1
< 50	CCCSc1nccc(-c2c(-c3ccc(F)cc3)ncn2[C@@H](CC)CO)n1
< 50	COc1nccc(-c2c(-c3ccc(F)cc3)ncn2[C@H](CO)Cc2ccccc2)n1
< 50	C[C@@H](CO)n1cnc(-c2ccc(F)cc2)c1-c1ccnc(Nc2ccccc2)n1
< 50	CCCSc1nccc(-c2c(-c3ccc(F)cc3)ncn2C(C)CC(=O)OC)n1 (stereo unspecified)
< 50	CNc1nccc(-c2c(-c3ccc(F)cc3)ncn2[C@@H](CO)c2ccccc2)n1
< 50	CC[C@H](CO)n1cnc(-c2ccc(F)cc2)c1-c1ccnc(NC)n1
< 50	COc1nccc(-c2c(-c3ccc(F)cc3)ncn2C(C)CN(C)C)n1 (stereo unspecified)
< 50	COc1nccc(-c2c(-c3ccc(F)cc3)ncn2[C@H](CO)c2ccccc2)n1
< 50	CCCSc1nccc(-c2c(-c3ccc(F)cc3)ncn2[C@@H](C)CO)n1
< 50	CC[C@@H](CO)n1cnc(-c2ccc(F)cc2)c1-c1ccnc(NC)n1
